Tested on: 429239-143-T-J1-PDC complex spheroid viability
Experiment: Anticancer human tumor 429239-143-T-J1-PDC patient-derived small cell lung carcinoma cell line growth inhibition [POLQ]
Details: for IC50: curve of first compound; for viability, T/C: stronger effect = lower value
Summary of the method: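 Complex spheroid viability model combining PDC tumour cells with endothelial (HUVEC) and MSC stromal cells. Novobiocin, ART-558 or RP6685 were tested singly and in combination with standard and investigational anticancer drugs. Each was titrated in half-log steps from near clinical Cmax, or from 10 microM where Cmax was unknown.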

[1] = second compound 0.0316 µM, first compound 0.00316 µM
[2] = second compound 0.0316 µM, first compound 0.01 µM
[3] = second compound 0.0316 µM, first compound 0.0316 µM
[4] = second compound 0.0316 µM, first compound 0.1 µM
[5] = second compound 0.0316 µM, first compound 0.316 µM
[6] = second compound 0.0316 µM, first compound 1 µM
[7] = second compound 0.1 µM, first compound 0.00316 µM
[8] = second compound 0.1 µM, first compound 0.01 µM
[9] = second compound 0.1 µM, first compound 0.0316 µM
[10] = second compound 0.1 µM, first compound 0.1 µM
[11] = second compound 0.1 µM, first compound 0.316 µM
[12] = second compound 0.1 µM, first compound 1 µM
[13] = second compound 0.316 µM, first compound 0.00316 µM
[14] = second compound 0.316 µM, first compound 0.01 µM
[15] = second compound 0.316 µM, first compound 0.0316 µM
[16] = second compound 0.316 µM, first compound 0.1 µM
[17] = second compound 0.316 µM, first compound 0.316 µM
[18] = second compound 0.316 µM, first compound 1 µM
[19] = second compound 1 µM, first compound 0.00316 µM
[20] = second compound 1 µM, first compound 0.01 µM
[21] = second compound 1 µM, first compound 0.0316 µM
[22] = second compound 1 µM, first compound 0.1 µM
[23] = second compound 1 µM, first compound 0.316 µM
[24] = second compound 1 µM, first compound 1 µM
[25] = second compound 3.16 µM, first compound 0.00316 µM
[26] = second compound 3.16 µM, first compound 0.01 µM
[27] = second compound 3.16 µM, first compound 0.0316 µM
[28] = second compound 3.16 µM, first compound 0.1 µM
[29] = second compound 3.16 µM, first compound 0.316 µM
[30] = second compound 3.16 µM, first compound 1 µM
[31] = second compound 10 µM, first compound 0.00316 µM
[32] = second compound 10 µM, first compound 0.01 µM
[33] = second compound 10 µM, first compound 0.0316 µM
[34] = second compound 10 µM, first compound 0.1 µM
[35] = second compound 10 µM, first compound 0.316 µM
[36] = second compound 10 µM, first compound 1 µM
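Note: luminescence signal used as surrogate measure of viable cells; spheroids exposed to compounds for seven days before readout.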
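Throughout, for viability, T/C: 100% = DMSO vehicle control viability as luminescence relative to vehicle.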

Structure (SMILES): C=CCn1c(=O)c2cnc(Nc3ccc(N4CCN(C)CC4)cc3)nc2n1-c1cccc(C(C)(C)O)n1 + Cc1cccc(N(C)C(=O)C2C(O)CCN2c2nc(C)cc(C(F)(F)F)c2C#N)c1
- IC50 (second compound 0.0316 µM): 0.644 µM
- IC50 (second compound 0.1 µM): 0.637 µM
- IC50 (second compound 0.316 µM): 0.593 µM
- IC50 (second compound 1 µM): 0.587 µM
- IC50 (second compound 3.16 µM): 0.609 µM
- IC50 (second compound 10 µM): 0.642 µM
- viability, T/C [1]: 106%
- viability, T/C [2]: 110%
- viability, T/C [3]: 103%
- viability, T/C [4]: 95.1%
- viability, T/C [5]: 103%
- viability, T/C [6]: 17%
- viability, T/C [7]: 105%
- viability, T/C [8]: 105%
- viability, T/C [9]: 97.5%
- viability, T/C [10]: 102%
- viability, T/C [11]: 103%
- viability, T/C [12]: 16.1%
- viability, T/C [13]: 109%
- viability, T/C [14]: 106%
- viability, T/C [15]: 106%
- viability, T/C [16]: 116%
- viability, T/C [17]: 91.1%
- viability, T/C [18]: 16.1%
- viability, T/C [19]: 107%
- viability, T/C [20]: 100%
- viability, T/C [21]: 103%
- viability, T/C [22]: 111%
- viability, T/C [23]: 89.6%
- viability, T/C [24]: 16%
- viability, T/C [25]: 108%
- viability, T/C [26]: 102%
- viability, T/C [27]: 97.7%
- viability, T/C [28]: 111%
- viability, T/C [29]: 93.3%
- viability, T/C [30]: 16.7%
- viability, T/C [31]: 118%
- viability, T/C [32]: 113%
- viability, T/C [33]: 113%
- viability, T/C [34]: 100%
- viability, T/C [35]: 104%
- viability, T/C [36]: 16.6%

Structure (SMILES): CC[C@@]1(O)C(=O)OCc2c1cc1n(c2=O)Cc2cc3c(CN(C)C)c(O)ccc3nc2-1 + Cc1cccc(N(C)C(=O)C2C(O)CCN2c2nc(C)cc(C(F)(F)F)c2C#N)c1
- IC50 (second compound 0.0316 µM): 0.0105 µM
- IC50 (second compound 0.1 µM): 0.0155 µM
- IC50 (second compound 0.316 µM): 0.0155 µM
- IC50 (second compound 1 µM): 0.0153 µM
- IC50 (second compound 3.16 µM): 0.0127 µM
- IC50 (second compound 10 µM): 0.0128 µM
- viability, T/C (second compound 0.0316 µM, first compound 0.000316 µM): 102%
- viability, T/C (second compound 0.0316 µM, first compound 0.001 µM): 98.8%
- viability, T/C [1]: 94.6%
- viability, T/C [2]: 51.7%
- viability, T/C [3]: 18.5%
- viability, T/C [4]: 18.2%
- viability, T/C (second compound 0.1 µM, first compound 0.000316 µM): 100%
- viability, T/C (second compound 0.1 µM, first compound 0.001 µM): 106%
- viability, T/C [7]: 96.3%
- viability, T/C [8]: 69.9%
- viability, T/C [9]: 15.8%
- viability, T/C [10]: 18.5%
- viability, T/C (second compound 0.316 µM, first compound 0.000316 µM): 102%
- viability, T/C (second compound 0.316 µM, first compound 0.001 µM): 107%
- viability, T/C [13]: 88.7%
- viability, T/C [14]: 70.3%
- viability, T/C [15]: 14.9%
- viability, T/C [16]: 18.3%
- viability, T/C (second compound 1 µM, first compound 0.000316 µM): 99.1%
- viability, T/C (second compound 1 µM, first compound 0.001 µM): 105%
- viability, T/C [19]: 103%
- viability, T/C [20]: 68.8%
- viability, T/C [21]: 17.9%
- viability, T/C [22]: 16.9%
- viability, T/C (second compound 3.16 µM, first compound 0.000316 µM): 106%
- viability, T/C (second compound 3.16 µM, first compound 0.001 µM): 90.4%
- viability, T/C [25]: 94.2%
- viability, T/C [26]: 58%
- viability, T/C [27]: 19.3%
- viability, T/C [28]: 18.9%
- viability, T/C (second compound 10 µM, first compound 0.000316 µM): 101%
- viability, T/C (second compound 10 µM, first compound 0.001 µM): 96.2%
- viability, T/C [31]: 94.3%
- viability, T/C [32]: 57.9%
- viability, T/C [33]: 20.4%
- viability, T/C [34]: 19.6%

Structure (SMILES): COc1cc(C2c3cc4c(cc3C(OC3OC5COC(C)OC5C(O)C3O)C3COC(=O)C23)OCO4)cc(OC)c1O (stereo unspecified) + Cc1cccc(N(C)C(=O)C2C(O)CCN2c2nc(C)cc(C(F)(F)F)c2C#N)c1
- IC50 (second compound 0.0316 µM): 0.377 µM
- IC50 (second compound 0.1 µM): 0.366 µM
- IC50 (second compound 0.316 µM): 0.501 µM
- IC50 (second compound 1 µM): 0.337 µM
- IC50 (second compound 3.16 µM): 0.226 µM
- IC50 (second compound 10 µM): 0.246 µM
- viability, T/C [3]: 107%
- viability, T/C [4]: 92.9%
- viability, T/C [5]: 56.7%
- viability, T/C [6]: 19.1%
- viability, T/C (second compound 0.0316 µM, first compound 3.16 µM): 20.2%
- viability, T/C (second compound 0.0316 µM, first compound 10 µM): 14.3%
- viability, T/C [9]: 92.4%
- viability, T/C [10]: 88%
- viability, T/C [11]: 54.4%
- viability, T/C [12]: 19.6%
- viability, T/C (second compound 0.1 µM, first compound 3.16 µM): 16.6%
- viability, T/C (second compound 0.1 µM, first compound 10 µM): 14.1%
- viability, T/C [15]: 92.3%
- viability, T/C [16]: 90.1%
- viability, T/C [17]: 69.2%
- viability, T/C [18]: 21.1%
- viability, T/C (second compound 0.316 µM, first compound 3.16 µM): 17.4%
- viability, T/C (second compound 0.316 µM, first compound 10 µM): 15.9%
- viability, T/C [21]: 85.5%
- viability, T/C [22]: 83.3%
- viability, T/C [23]: 52%
- viability, T/C [24]: 17.4%
- viability, T/C (second compound 1 µM, first compound 3.16 µM): 16.1%
- viability, T/C (second compound 1 µM, first compound 10 µM): 15.9%
- viability, T/C [27]: 82.8%
- viability, T/C [28]: 77.4%
- viability, T/C [29]: 38.8%
- viability, T/C [30]: 15.2%
- viability, T/C (second compound 3.16 µM, first compound 3.16 µM): 19.5%
- viability, T/C (second compound 3.16 µM, first compound 10 µM): 16.6%
- viability, T/C [33]: 94.6%
- viability, T/C [34]: 74.8%
- viability, T/C [35]: 44.6%
- viability, T/C [36]: 20.7%
- viability, T/C (second compound 10 µM, first compound 3.16 µM): 21.2%
- viability, T/C (second compound 10 µM, first compound 10 µM): 18.2%

— PubChem BioAssay AID1963845 (Molecular Pharmacology Branch, DTP, NCI, 2024)
